Data from ChEMBL document CHEMBL1133959, “Syntheses and preliminary pharmacological evaluation of the two epimers of the 5-F2t-isoprostane” (2001).
Activity calls are given as the source filed them. The calls are words filed in the database; no cut-off is given here.

Legend:
Format in all cases: functional
Rattus norvegicus [1] = organism: Rattus norvegicus; assay: Compound was tested for maximal contraction of rat thoracic aorta
Rattus norvegicus [2] = organism: Rattus norvegicus; assay: Effect of compound on rat thoracic aorta constriction in rat
Rattus norvegicus [3] = organism: Rattus norvegicus; assay: Effect of compound on rat thoracic aorta constriction in rat at 10e-5 M concentration; No effect

| SMILES | Emax (Rattus norvegicus [1]) [%] | pD2 (Rattus norvegicus [2]) | pD2 (Rattus norvegicus [3]) |
| --- | --- | --- | --- |
| CCCCC[C@H](O)/C=C/[C@H]1C2CC(CO2)[C@@H]1C/C=C\CCCC(=O)O (some centres undefined) | 189 | 7.8 | – |
| CCCCC/C=C\C[C@@H]1[C@H](/C=C/[C@H](O)CCCC(=O)OC)[C@@H](O)C[C@H]1O | – | – | inactive |
| CCCCC/C=C\C[C@@H]1[C@H](/C=C/[C@@H](O)CCCC(=O)OC)[C@@H](O)C[C@H]1O | – | – | inactive |
